According to patent US11384055B2 (BIOMARIN PHARMACEUTICAL INC., priority 2017, dated 2022):

The compounds below were run against T1, Human GO (Homo sapiens, UniProt Q9UJM8) (assay: GO enzymatic assay (coupled fluorescence/HRP assay, glycolate substrate)). Conditions: not given.
T1 construct: purchased Novus Biologicals NBP1-72412
T1 sequence (Q9UJM8 1-370): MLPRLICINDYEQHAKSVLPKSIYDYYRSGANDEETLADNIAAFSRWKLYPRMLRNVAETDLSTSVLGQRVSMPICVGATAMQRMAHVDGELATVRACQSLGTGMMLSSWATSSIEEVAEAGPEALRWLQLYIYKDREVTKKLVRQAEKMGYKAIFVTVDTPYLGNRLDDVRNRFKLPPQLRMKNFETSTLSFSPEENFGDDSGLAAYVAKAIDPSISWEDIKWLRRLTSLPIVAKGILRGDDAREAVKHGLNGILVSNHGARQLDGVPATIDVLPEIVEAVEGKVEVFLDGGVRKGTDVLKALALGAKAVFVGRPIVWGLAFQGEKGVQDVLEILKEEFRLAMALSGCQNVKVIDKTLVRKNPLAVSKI
Format: biochemical
Protocol: Assay 1: GO Enzymatic Assay
GO was incubated with its substrate, glycolate, in 50 mM potassium phosphate buffer, pH 7. […] The enzyme was optimized and the kinetics was determined.
Compound inhibition was determined by adding various concentrations of inhibitors in the GO enzyme assay. The IC50 value for each measured compound was generated from sigmoidal dose-response (variable slope) curves with GraphPad Prism software (GraphPad Software, Inc., San Diego, Calif.) using the percent inhibition of GO activity relative to DMSO control.
`O=C(O)c1[nH]nnc1Sc1ccc(Cl)c(Cl)c1` [Compound 41, 4-((3,4-dichlorophenyl)thio)-1H-1,2,3-triazole-5-carboxylic acid] gave an IC50 of under 100 nM.

Same assay, conditions: Table 1; read-out: Range (range of IC50 values calculated from the enzymatic assays)
`O=C(O)c1[nH]nnc1Sc1ccc(-c2ccc(OC(F)(F)F)c(Cl)c2)cc1` [Compound 32, 4-((3′-chloro-4′-(trifluoromethoxy)-[1,1′-biphenyl]-4-yl)thio)-1H-1,2,3-triazole-5-carboxylic acid] was tested, and the IC50 was under 100 nM. `COC(=O)c1[nH]nnc1Sc1ccc(-c2ccc(OC(F)(F)F)cc2)cc1` [Compound 33, methyl 4-((4′-(trifluoromethoxy)-[1,1′-biphenyl]-4-yl)thio)-1H-1,2,3-triazole-5-carboxylate] showed an IC50 of over 10000 nM. For `CCCCOc1ccc2sc(Sc3nn[nH]c3C(=O)O)nc2c1` [Compound 34, 4-((5-butoxybenzo[d]thiazol-2-yl)thio)-1H-1,2,3-triazole-5-carboxylic acid], the IC50 was 100 to 1000 nM. `Cn1c(Sc2nn[nH]c2C(=O)O)cnc1-c1ccc(Cl)c(Cl)c1` [Compound 35, 4-((2-(3,4-dichlorophenyl)-1-methyl-1H-imidazol-5-yl)thio)-1H-1,2,3-triazole-5-carboxylic acid 2,2,2-trifluoroacetate] gave an IC50 of 100 to 1000 nM. `O=C(O)c1[nH]nnc1Sc1csc(-c2ccc(Cl)c(Cl)c2)c1` [Compound 36, 4-((5-(3,4-dichlorophenyl)thiophen-3-yl)thio)-1H-1,2,3-triazole-5-carboxylic acid] showed an IC50 of under 100 nM. Compound `CN(C)CCOC(=O)c1[nH]nnc1Sc1ccc(-c2ccc(OC(F)(F)F)cc2)cc1` [Compound 37, 2-(dimethylamino)ethyl 4-((4′-(trifluoromethoxy)-[1,1′-biphenyl]-4-yl)thio)-1H-1,2,3-triazole-5-carboxylate] has an IC50 of over 10000 nM. For `O=C(O)c1[nH]nnc1Sc1csc(-c2ccc(OC(F)(F)F)c(Cl)c2)n1` [Compound 39, 4-((2-(3-chloro-4-(trifluoromethoxy)phenyl)thiazol-4-yl)thio)-1H-1,2,3-triazole-5-carboxylic acid], the IC50 was under 100 nM. `COC(=O)c1[nH]nnc1Sc1csc(-c2ccc(OC(F)(F)F)c(Cl)c2)n1` [Compound 40, methyl 4-((2-(3-chloro-4-(trifluoromethoxy)phenyl)thiazol-4-yl)thio)-1H-1,2,3-triazole-5-carboxylate] showed an IC50 of over 10000 nM. `O=C(O)c1[nH]nnc1Sc1cccc(-c2ccc(OC(F)(F)F)cc2)c1` [Compound 42, 4-((4′-(trifluoromethoxy)-[1,1′-biphenyl]-3-yl)thio)-1H-1,2,3-triazole-5-carboxylic acid] gave an IC50 of under 100 nM. `O=C(O)c1[nH]nnc1Sc1nc(-c2ccc(OC(F)(F)F)c(Cl)c2)cs1` [Compound 43, 4-((4-(3-chloro-4-(trifluoromethoxy)phenyl)thiazol-2-yl)thio)-1H-1,2,3-triazole-5-carboxylic acid] was tested, and the IC50 was under 100 nM. With `COC(=O)c1[nH]nnc1Sc1nc(-c2ccc(OC(F)(F)F)c(Cl)c2)cs1` [Compound 44, methyl 4-((4-(3-chloro-4-(trifluoromethoxy)phenyl)thiazol-2-yl)thio)-1H-1,2,3-triazole-5-carboxylate] the IC50 was over 10000 nM. With `O=C(OC1COC1)c1[nH]nnc1Sc1ccc(-c2ccc(OC(F)(F)F)cc2)cc1` [Compound 45, oxetan-3-yl 4-((4′-(trifluoromethoxy)-[1,1′-biphenyl]-4-yl)thio)-1H-1,2,3-triazole-5-carboxylate] the IC50 was 1000 to 10000 nM. `O=C(O)c1[nH]nnc1Sc1ccc2cc(Cl)ccc2n1` [Compound 46, 4-((6-chloroquinolin-2-yl)thio)-1H-1,2,3-triazole-5-carboxylic acid] gave an IC50 of 100 to 1000 nM. For `O=C(O)c1[nH]nnc1Sc1ccc(-c2ccc(Cl)cc2)c(Cl)c1` [Compound 47, 4-((2,4′-dichloro-[1,1′-biphenyl]-4-yl)thio)-1H-1,2,3-triazole-5-carboxylic acid], the IC50 was under 100 nM. Work on `O=C(O)c1[nH]nnc1Sc1ccc(-c2ccc(Cl)cc2)cc1Cl` [Compound 48, 4-((3,4′-dichloro-[1,1′-biphenyl]-4-yl)thio)-1H-1,2,3-triazole-5-carboxylic acid] yielded an IC50 of under 100 nM. Compound `O=C(O)c1[nH]nnc1Sc1ccc(F)c(F)c1` [Compound 49, 4-((3,4-difluorophenyl)thio)-1H-1,2,3-triazole-5-carboxylic acid] has an IC50 of under 100 nM. For `O=C(O)c1[nH]nnc1Sc1ccc2c(c1)CCCC2` [Compound 50, 4-((5,6,7,8-tetrahydronaphthalen-2-yl)thio)-1H-1,2,3-triazole-5-carboxylic acid], the IC50 was under 100 nM. With `CC(C)(C)C(=O)OCn1nnc(Sc2ccc(-c3ccc(OC(F)(F)F)cc3)cc2)c1C(=O)O` [Compound 51, 1-((pivaloyloxy)methyl)-4-((4′-(trifluoromethoxy)-[1,1′-biphenyl]-4-yl)thio)-1H-1,2,3-triazole-5-carboxylic acid] the IC50 was 100 to 1000 nM. Compound `CC(C)C(=O)OCn1nnc(Sc2ccc(-c3ccc(OC(F)(F)F)cc3)cc2)c1C(=O)O` [Compound 52, 1-((isobutyryloxy)methyl)-4-((4′-(trifluoromethoxy)-[1,1′-biphenyl]-4-yl)thio)-1H-1,2,3-triazole-5-carboxylic acid] has an IC50 of 100 to 1000 nM. Compound `O=C(O)c1[nH]nnc1Sc1ccc2ncsc2c1` [Compound 53, 4-(benzo[d]thiazol-6-ylthio)-1H-1,2,3-triazole-5-carboxylic acid 2,2,2-trifluoroacetate] has an IC50 of under 100 nM. In the case of `CC(C)(C)C(=O)OCOC(=O)c1[nH]nnc1Sc1ccc(-c2ccc(OC(F)(F)F)cc2)cc1` [Compound 54, (pivaloyloxy)methyl 4-((4′-(trifluoromethoxy)-[1,1′-biphenyl]-4-yl)thio)-1H-1,2,3-triazole-5-carboxylate], the IC50 is reported as 1000 to 10000 nM. With `CC(C)C(=O)OCOC(=O)c1[nH]nnc1Sc1ccc(-c2ccc(OC(F)(F)F)cc2)cc1` [Compound 55, (isobutyryloxy)methyl 4-((4′-(trifluoromethoxy)-[1,1′-biphenyl]-4-yl)thio)-1H-1,2,3-triazole-5-carboxylate] the IC50 was 100 to 1000 nM. In the case of `O=C(O)c1[nH]nnc1Sc1ccc2cc(Cl)ccc2c1` [Compound 56, 4-((6-chloronaphthalen-2-yl)thio)-1H-1,2,3-triazole-5-carboxylic acid], the IC50 is reported as under 100 nM. For `O=C(O)c1[nH]nnc1SC1Cc2cc(Cl)c(Cl)cc2C1` [Compound 57, 4-((5,6-dichloro-2,3-dihydro-1H-inden-2-yl)thio)-1H-1,2,3-triazole-5-carboxylic 2,2,2-trifluoroacetate], the IC50 was under 100 nM. Compound `CCOC(=O)c1[nH]nnc1Nc1ccc(-c2ccc(Cl)cc2)cc1` [Compound 58-1, ethyl 4-((4′-chloro-[1,1′-biphenyl]-4-yl)amino)-1H-1,2,3-triazole-5-carboxylate] has an IC50 of over 10000 nM. Work on `O=C(O)c1[nH]nnc1Nc1ccc(-c2ccc(Cl)cc2)cc1` [Compound 58-2, 4-((4′-chloro-[1,1′-biphenyl]-4-yl)amino)-1H-1,2,3-triazole-5-carboxylic acid] yielded an IC50 of under 100 nM. `O=C(O)c1[nH]nnc1Nc1nc(-c2ccc(Cl)c(Cl)c2)cs1` [Compound 59, 4-((4-(3,4-dichlorophenyl)thiazol-2-yl)amino)-1H-1,2,3-triazole-5-carboxylic acid] showed an IC50 of under 100 nM. `O=C(O)c1[nH]nnc1Nc1ccc(-c2ccc(Cl)c(Cl)c2)cc1` [Compound 60, 4-((3′,4′-dichloro-[1,1′-biphenyl]-4-yl)amino)-1H-1,2,3-triazole-5-carboxylic acid] was tested, and the IC50 was under 100 nM. `O=C(O)c1[nH]nnc1Nc1csc(-c2ccc(Cl)c(Cl)c2)n1` [Compound 61, ammonium 4-((2-(3,4-dichlorophenyl)thiazol-4-yl)amino)-1H-1,2,3-triazole-5-carboxylate] was tested, and the IC50 was under 100 nM. `O=C(O)c1[nH]nnc1Nc1ccc(-c2ccc(OC(F)(F)F)cc2)cc1` [Compound 62, 4-((4′-(trifluoromethoxy)-[1,1′-biphenyl]-4-yl)amino)-1H-1,2,3-triazole-5-carboxylic acid 2,2,2-trifluoroacetate] was tested, and the IC50 was under 100 nM. Compound `CN(c1csc(-c2ccc(Cl)c(Cl)c2)n1)c1nn[nH]c1C(=O)O` [Compound 63, 4-((2-(3,4-dichlorophenyl)thiazol-4-yl)(methyl)amino)-1H-1,2,3-triazole-5-carboxylic acid] has an IC50 of 100 to 1000 nM. Compound `O=C(O)c1[nH]nnc1Nc1nc(-c2ccc(OC(F)(F)F)c(Cl)c2)cs1` [Compound 64, 4-((4-(3-chloro-4-(trifluoromethoxy)phenyl)thiazol-2-yl)amino)-1H-1,2,3-triazole-5-carboxylic acid] has an IC50 of under 100 nM. For `COC(=O)c1[nH]nnc1Nc1ccc(-c2ccc(OC(F)(F)F)cc2)cc1` [Compound 65, methyl 4-((4′-(trifluoromethoxy)-[1,1′-biphenyl]-4-yl)amino)-1H-1,2,3-triazole-5-carboxylate], the IC50 was over 10000 nM. `O=C(O)CN(c1ccc(-c2ccc(Cl)cc2)cc1)c1nn[nH]c1C(=O)O` [Compound 66, 4-((carboxymethyl)(4′-chloro-[1,1′-biphenyl]-4-yl)amino)-1H-1,2,3-triazole-5-carboxylic acid 2,2,2-trifluoroacetate] showed an IC50 of 1000 to 10000 nM. With `O=C(O)c1[nH]nnc1NCc1cccc(-c2ccc(Cl)c(Cl)c2)c1` [Compound 67, 4-(((3′,4′-dichloro-[1,1′-biphenyl]-3-yl)methyl)amino)-1H-1,2,3-triazole-5-carboxylic acid] the IC50 was 100 to 1000 nM.
